How the values were obtained:
Test in all cases: relative viability (nuclei count vs DMSO), 5 days (fraction); higher = more cells survive
[1] = compound: CCN1C(=O)C2=CC(=C(N=C2N(C1=O)C3CC3)N)C(=O)N + Nc1ncn([C@H]2C[C@H](O)[C@@H](CO)O2)c(=O)n1 [Decitabine] (partner 2 µM)
Outline: (§1)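 Values are medians from duplicate plates. Each reflects relative viability, defined as the nuclei count of treated wells over that of vehicle wells. Lung cancer cell lines in 1536-well plates were pin-tool dosed one day after seeding with one drug alone or with a fixed anchor-drug dose plus five library-drug doses (not always all listed) in √10 steps, then fixed, stained and imaged at 4× after 5 days.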

[2] = compound: CCN1C(=O)C2=CC(=C(N=C2N(C1=O)C3CC3)N)C(=O)N + Cc1cc(Nc2cc(N3CCN(C)CC3)nc(Sc3ccc(NC(=O)C4CC4)cc3)n2)n[nH]1 [Tozasertib] (partner 0.1 µM)
Outline: as §1

[3] = compound: CCN1C(=O)C2=CC(=C(N=C2N(C1=O)C3CC3)N)C(=O)N + Nc1nc2[nH]cc(CCc3ccc(C(=O)N[C@@H](CCC(=O)O)C(=O)O)cc3)c2c(=O)[nH]1 [Pemetrexed] (partner 0.2 µM)
Outline: as §1

[4] = compound: CCN1C(=O)C2=CC(=C(N=C2N(C1=O)C3CC3)N)C(=O)N + CC(=O)c1c(C)c2cnc(Nc3ccc(N4CCNCC4)cn3)nc2n(C2CCCC2)c1=O [Palbociclib] (partner 0.5 µM)
Outline: as §1

[5] = compound: CCN1C(=O)C2=CC(=C(N=C2N(C1=O)C3CC3)N)C(=O)N + COc1cccc2cc(-c3nc([C@H]4CC[C@H](C(=O)O)CC4)n4ncnc(N)c34)[nH]c12 [OSI-027] (partner 0.5 µM)
Outline: as §1

[6] = compound: CCN1C(=O)C2=CC(=C(N=C2N(C1=O)C3CC3)N)C(=O)N + O=C(CCCCCCC(=O)Nc1ccccc1)NO [Vorinostat] (partner 1 µM)
Outline: as §1

[7] = compound: CCN1C(=O)C2=CC(=C(N=C2N(C1=O)C3CC3)N)C(=O)N + NC(=O)Nc1cc(-c2cccc(F)c2)sc1C(=O)N[C@H]1CCCNC1 [AZD7762] (partner 0.2 µM)
Outline: as §1

[8] = compound: CCN1C(=O)C2=CC(=C(N=C2N(C1=O)C3CC3)N)C(=O)N + CC(=O)Nc1cccc(-n2c(=O)n(C3CC3)c(=O)c3c(Nc4ccc(I)cc4F)n(C)c(=O)c(C)c32)c1 [Trametinib] (partner 0.02 µM)
Outline: as §1

[9] = compound: CCN1C(=O)C2=CC(=C(N=C2N(C1=O)C3CC3)N)C(=O)N + O=C(c1cc(Cc2n[nH]c(=O)c3ccccc23)ccc1F)N1CCN(C(=O)C2CC2)CC1 [Olaparib] (partner 8 µM)
Outline: as §1

[10] = compound: CCN1C(=O)C2=CC(=C(N=C2N(C1=O)C3CC3)N)C(=O)N
Outline: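 MetaXpress counted nuclei in 4× images of lung cancer cell lines that had been fixed, permeabilised and Hoechst-stained in one step. Before that, cells in 1536-well plates were kept overnight at 37 °C, pinned with five √10-spaced library-drug doses on vehicle-anchored plates, and cultured 5 days without medium change. Viability takes treated-well nuclei over vehicle-well nuclei and uses the median across plates. Plates were accepted only at control CV below 25% and at least one doubling.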

[11] = compound: CCN1C(=O)C2=CC(=C(N=C2N(C1=O)C3CC3)N)C(=O)N + N=C(N)NC(=N)NCCc1ccccc1 [Phenformin] (partner 250 µM)
Outline: as §1

[12] = compound: CCN1C(=O)C2=CC(=C(N=C2N(C1=O)C3CC3)N)C(=O)N + CCNC(=O)c1noc(-c2cc(C(C)C)c(O)cc2O)c1-c1ccc(CN2CCOCC2)cc1 [Luminespib] (partner 0.01 µM)
Outline: as §1

[13] = compound: CCN1C(=O)C2=CC(=C(N=C2N(C1=O)C3CC3)N)C(=O)N + Cc1nc(Nc2ncc(C(=O)Nc3c(C)cccc3Cl)s2)cc(N2CCN(CCO)CC2)n1 [Dasatinib] (partner 0.075 µM)
Outline: as §1

[14] = compound: CCN1C(=O)C2=CC(=C(N=C2N(C1=O)C3CC3)N)C(=O)N + COc1cc2c(Oc3ccc(NC(=O)C4(C(=O)Nc5ccc(F)cc5)CC4)cc3F)ccnc2cc1OCCCN1CCOCC1 [Foretinib] (partner 0.25 µM)
Outline: as §1

NCI-H1648
relative viability ([1]; first compound 0.253 µM): 0.394
relative viability ([1]; first compound 2.53 µM): 0.429
relative viability ([1]; first compound 8 µM): 0.445
relative viability ([2]; first compound 0.253 µM): 0.416
relative viability ([2]; first compound 0.8 µM): 0.526
relative viability ([2]; first compound 2.53 µM): 0.423
relative viability ([2]; first compound 8 µM): 0.53
relative viability ([3]; first compound 0.253 µM): 0.735
relative viability ([3]; first compound 2.53 µM): 0.64
relative viability ([3]; first compound 8 µM): 0.585
relative viability ([4]; first compound 0.253 µM): 0.301
relative viability ([4]; first compound 2.53 µM): 0.243
relative viability ([4]; first compound 8 µM): 0.273
relative viability ([5]; first compound 0.253 µM): 0.265
relative viability ([5]; first compound 0.8 µM): 0.271
relative viability ([5]; first compound 2.53 µM): 0.259
relative viability ([5]; first compound 8 µM): 0.278
relative viability ([6]; first compound 0.253 µM): 0.488
relative viability ([6]; first compound 2.53 µM): 0.219
relative viability ([6]; first compound 8 µM): 0.9
relative viability ([7]; first compound 0.253 µM): 0.706
relative viability ([7]; first compound 2.53 µM): 0.646
relative viability ([7]; first compound 8 µM): 0.568
relative viability ([8]; first compound 0.253 µM): 0.45
relative viability ([8]; first compound 2.53 µM): 0.245
relative viability ([8]; first compound 8 µM): 0.386
relative viability ([9]; first compound 0.253 µM): 0.914
relative viability ([9]; first compound 2.53 µM): 1.07
relative viability ([9]; first compound 8 µM): 0.883
relative viability ([10]; 0.253 µM): 0.835
relative viability ([10]; 0.8 µM): 0.932
relative viability ([10]; 2.53 µM): 0.89
relative viability ([10]; 8 µM): 0.851

NCI-H2342
relative viability ([11]; first compound 0.253 µM): 0.556
relative viability ([11]; first compound 0.8 µM): 0.547
relative viability ([11]; first compound 2.53 µM): 0.666
relative viability ([11]; first compound 8 µM): 0.532
relative viability ([1]; first compound 0.253 µM): 0.642
relative viability ([1]; first compound 0.8 µM): 0.729
relative viability ([1]; first compound 2.53 µM): 0.701
relative viability ([1]; first compound 8 µM): 0.766
relative viability ([2]; first compound 0.253 µM): 0.512
relative viability ([2]; first compound 0.8 µM): 0.533
relative viability ([2]; first compound 2.53 µM): 0.544
relative viability ([2]; first compound 8 µM): 0.54
relative viability ([3]; first compound 0.253 µM): 0.781
relative viability ([3]; first compound 0.8 µM): 0.746
relative viability ([3]; first compound 2.53 µM): 0.802
relative viability ([3]; first compound 8 µM): 0.817
relative viability ([4]; first compound 0.253 µM): 0.549
relative viability ([4]; first compound 0.8 µM): 0.533
relative viability ([4]; first compound 2.53 µM): 0.426
relative viability ([4]; first compound 8 µM): 0.461
relative viability ([5]; first compound 0.253 µM): 0.612
relative viability ([5]; first compound 0.8 µM): 0.568
relative viability ([5]; first compound 2.53 µM): 0.704
relative viability ([5]; first compound 8 µM): 0.524
relative viability ([6]; first compound 0.253 µM): 0.719
relative viability ([6]; first compound 0.8 µM): 0.812
relative viability ([6]; first compound 2.53 µM): 0.817
relative viability ([6]; first compound 8 µM): 0.645
relative viability ([7]; first compound 0.253 µM): 0.527
relative viability ([7]; first compound 0.8 µM): 0.426
relative viability ([7]; first compound 2.53 µM): 0.514
relative viability ([7]; first compound 8 µM): 0.503
relative viability ([12]; first compound 0.253 µM): 0.756
relative viability ([12]; first compound 0.8 µM): 0.761
relative viability ([12]; first compound 2.53 µM): 0.747
relative viability ([12]; first compound 8 µM): 0.784
relative viability ([13]; first compound 0.253 µM): 0.27
relative viability ([13]; first compound 0.8 µM): 0.294
relative viability ([13]; first compound 2.53 µM): 0.349
relative viability ([13]; first compound 8 µM): 0.323
relative viability ([8]; first compound 0.253 µM): 0.795
relative viability ([8]; first compound 0.8 µM): 0.8
relative viability ([8]; first compound 2.53 µM): 0.756
relative viability ([8]; first compound 8 µM): 0.857
relative viability ([14]; first compound 0.253 µM): 1.08
relative viability ([14]; first compound 0.8 µM): 0.941
relative viability ([14]; first compound 2.53 µM): 1.1
relative viability ([14]; first compound 8 µM): 1.03
relative viability ([9]; first compound 0.253 µM): 0.42
relative viability ([9]; first compound 0.8 µM): 0.467
relative viability ([9]; first compound 2.53 µM): 0.421
relative viability ([9]; first compound 8 µM): 0.492
relative viability ([10]; 0.253 µM): 1.04
relative viability ([10]; 0.8 µM): 0.821
relative viability ([10]; 2.53 µM): 0.907
relative viability ([10]; 8 µM): 0.948

Source: the supplement of paper PMC10307832
